Assay results: article PMC12858467, “In vitro toxicokinetics and metabolic profiling of methoxycathinones and methylthiocathinones using human liver systems and hyphenated mass spectrometry” (Archives of Toxicology, 2025)

Legend:
Format in all cases: in vitro ADME
Details in all cases: 30 min, 37 °C
[1] = target: T1, CYP1A2 (Homo sapiens, UniProt P05177); test: Monooxygenases activity screening, CYP1A2; set-up: key: +, detected; -, not detected
T1 construct: purchased Discovery Life Sciences (Huntsville, LA, USA); host or cells: baculovirus-infected insect cells (microsomes, Supersomes)
T1 sequence (P05177 1-516): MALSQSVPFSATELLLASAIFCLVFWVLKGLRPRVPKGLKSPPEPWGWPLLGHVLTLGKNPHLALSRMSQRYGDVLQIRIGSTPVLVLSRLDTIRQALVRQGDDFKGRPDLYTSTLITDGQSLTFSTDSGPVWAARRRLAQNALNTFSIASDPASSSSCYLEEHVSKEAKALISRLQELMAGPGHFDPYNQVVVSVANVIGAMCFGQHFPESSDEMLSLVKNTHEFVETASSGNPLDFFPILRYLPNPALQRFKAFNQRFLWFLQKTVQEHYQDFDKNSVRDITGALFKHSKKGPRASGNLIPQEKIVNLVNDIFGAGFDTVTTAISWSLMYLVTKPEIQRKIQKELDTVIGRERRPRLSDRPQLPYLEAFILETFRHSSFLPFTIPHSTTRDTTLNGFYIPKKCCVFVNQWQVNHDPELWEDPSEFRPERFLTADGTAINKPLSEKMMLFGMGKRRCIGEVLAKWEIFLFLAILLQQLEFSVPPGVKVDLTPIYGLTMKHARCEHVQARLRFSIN
Protocol: (§1) For incubations with CYP2A6 or CYP2C9, phosphate buffer was replaced with 90 mM Tris buffer, according to the manufacturer’s guideline. […] All incubations were done in duplicate and concentrations were fixed. Verapamil (25 µM) was incubated as a positive control.

[2] = target: T2, CYP2A6 (Homo sapiens, UniProt P11509); test: Monooxygenases activity screening, CYP2A6; set-up: key: +, detected; -, not detected
T2 construct: purchased Discovery Life Sciences (Huntsville, LA, USA); host or cells: baculovirus-infected insect cells (microsomes, Supersomes)
T2 sequence (P11509 1-494): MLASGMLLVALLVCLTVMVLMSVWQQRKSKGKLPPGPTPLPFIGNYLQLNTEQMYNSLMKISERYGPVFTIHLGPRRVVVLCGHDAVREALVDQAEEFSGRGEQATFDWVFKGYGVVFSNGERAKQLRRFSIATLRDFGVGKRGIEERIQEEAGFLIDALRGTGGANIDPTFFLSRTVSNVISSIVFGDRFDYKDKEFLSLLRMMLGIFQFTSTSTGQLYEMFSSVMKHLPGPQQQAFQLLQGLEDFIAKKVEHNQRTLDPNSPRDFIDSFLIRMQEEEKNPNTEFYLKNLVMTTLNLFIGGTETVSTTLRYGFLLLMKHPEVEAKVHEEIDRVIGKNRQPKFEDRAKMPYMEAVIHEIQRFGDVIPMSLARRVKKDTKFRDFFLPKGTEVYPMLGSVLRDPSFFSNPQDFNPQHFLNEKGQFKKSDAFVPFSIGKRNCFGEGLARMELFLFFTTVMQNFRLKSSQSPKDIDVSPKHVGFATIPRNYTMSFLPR
Protocol: as §1

[3] = target: T3, CYP2B6 (Homo sapiens, UniProt P20813); test: Monooxygenases activity screening, CYP2B6; set-up: key: +, detected; -, not detected
T3 construct: purchased Discovery Life Sciences (Huntsville, LA, USA); host or cells: baculovirus-infected insect cells (microsomes, Supersomes)
T3 sequence (P20813 1-491): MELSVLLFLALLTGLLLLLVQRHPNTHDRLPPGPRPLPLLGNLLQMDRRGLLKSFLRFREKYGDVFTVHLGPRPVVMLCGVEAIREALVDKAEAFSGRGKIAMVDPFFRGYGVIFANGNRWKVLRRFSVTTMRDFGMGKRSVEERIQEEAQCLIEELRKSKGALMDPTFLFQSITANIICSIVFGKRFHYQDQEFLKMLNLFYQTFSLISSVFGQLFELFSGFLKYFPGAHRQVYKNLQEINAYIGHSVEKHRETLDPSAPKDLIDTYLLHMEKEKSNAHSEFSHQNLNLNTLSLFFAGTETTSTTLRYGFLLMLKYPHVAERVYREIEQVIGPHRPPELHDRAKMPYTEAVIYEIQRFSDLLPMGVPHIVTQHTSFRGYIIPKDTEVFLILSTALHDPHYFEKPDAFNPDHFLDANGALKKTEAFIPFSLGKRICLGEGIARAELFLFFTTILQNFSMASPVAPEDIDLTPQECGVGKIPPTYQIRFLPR
Protocol: as §1

[4] = target: T4, CYP2C8 (Homo sapiens, UniProt P10632); test: Monooxygenases activity screening, CYP2C8; set-up: key: +, detected; -, not detected
T4 construct: purchased Discovery Life Sciences (Huntsville, LA, USA); host or cells: baculovirus-infected insect cells (microsomes, Supersomes)
T4 sequence (P10632 1-490): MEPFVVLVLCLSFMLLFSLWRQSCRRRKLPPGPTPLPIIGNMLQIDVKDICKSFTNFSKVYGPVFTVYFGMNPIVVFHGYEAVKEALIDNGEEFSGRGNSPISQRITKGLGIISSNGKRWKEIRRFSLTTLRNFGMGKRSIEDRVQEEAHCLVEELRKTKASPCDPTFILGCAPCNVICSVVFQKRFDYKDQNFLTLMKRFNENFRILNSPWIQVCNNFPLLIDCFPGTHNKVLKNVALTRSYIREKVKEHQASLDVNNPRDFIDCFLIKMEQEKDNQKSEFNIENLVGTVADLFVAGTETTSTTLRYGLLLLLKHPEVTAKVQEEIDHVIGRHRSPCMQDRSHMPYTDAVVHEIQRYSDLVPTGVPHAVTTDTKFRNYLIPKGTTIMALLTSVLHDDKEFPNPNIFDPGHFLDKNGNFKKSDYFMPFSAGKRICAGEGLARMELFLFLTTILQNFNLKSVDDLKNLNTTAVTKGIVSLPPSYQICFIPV
Protocol: as §1

[5] = target: T5, CYP2C9 (Homo sapiens, UniProt P11712); test: Monooxygenases activity screening, CYP2C9; set-up: key: +, detected; -, not detected
T5 construct: purchased Discovery Life Sciences (Huntsville, LA, USA); host or cells: baculovirus-infected insect cells (microsomes, Supersomes)
T5 sequence (P11712 whole entry): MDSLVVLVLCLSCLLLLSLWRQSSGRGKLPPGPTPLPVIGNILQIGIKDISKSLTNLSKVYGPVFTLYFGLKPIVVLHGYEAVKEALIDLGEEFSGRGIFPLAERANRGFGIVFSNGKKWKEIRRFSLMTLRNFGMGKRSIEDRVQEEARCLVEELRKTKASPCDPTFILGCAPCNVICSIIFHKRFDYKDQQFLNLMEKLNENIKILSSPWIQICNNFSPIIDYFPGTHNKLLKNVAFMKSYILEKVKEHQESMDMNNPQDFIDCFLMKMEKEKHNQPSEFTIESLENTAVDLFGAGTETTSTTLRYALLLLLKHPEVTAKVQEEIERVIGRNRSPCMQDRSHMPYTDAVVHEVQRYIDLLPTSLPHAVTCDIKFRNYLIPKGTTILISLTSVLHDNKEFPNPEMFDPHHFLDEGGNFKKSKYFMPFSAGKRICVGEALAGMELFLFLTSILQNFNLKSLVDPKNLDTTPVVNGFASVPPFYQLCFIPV
Protocol: as §1

[6] = target: T6, CYP2C19 (Homo sapiens, UniProt P33261); test: Monooxygenases activity screening, CYP2C19; set-up: key: +, detected; -, not detected
T6 construct: purchased Discovery Life Sciences (Huntsville, LA, USA); host or cells: baculovirus-infected insect cells (microsomes, Supersomes)
T6 sequence (P33261 whole entry): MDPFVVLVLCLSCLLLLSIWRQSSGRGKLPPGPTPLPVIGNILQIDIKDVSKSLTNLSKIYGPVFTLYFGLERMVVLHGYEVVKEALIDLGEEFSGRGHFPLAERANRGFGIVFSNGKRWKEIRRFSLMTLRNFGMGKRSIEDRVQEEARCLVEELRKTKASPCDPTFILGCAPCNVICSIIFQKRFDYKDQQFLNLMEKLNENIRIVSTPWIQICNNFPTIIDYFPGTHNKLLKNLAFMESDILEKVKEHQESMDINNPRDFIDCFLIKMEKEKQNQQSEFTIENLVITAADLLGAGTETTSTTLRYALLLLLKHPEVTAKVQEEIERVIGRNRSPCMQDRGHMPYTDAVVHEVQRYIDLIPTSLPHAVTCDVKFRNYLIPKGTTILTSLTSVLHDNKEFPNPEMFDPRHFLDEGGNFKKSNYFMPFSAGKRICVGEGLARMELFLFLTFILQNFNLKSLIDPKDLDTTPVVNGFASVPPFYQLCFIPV
Protocol: as §1

[7] = target: T7, CYP2D6 (Homo sapiens, UniProt P10635); test: Monooxygenases activity screening, CYP2D6; set-up: key to one-step metabolite detected in CYP2D6 incubation: +, detected; -, not detected
T7 construct: purchased Discovery Life Sciences (Huntsville, LA, USA); host or cells: baculovirus-infected insect cells (microsomes, Supersomes)
T7 sequence (P10635 whole entry): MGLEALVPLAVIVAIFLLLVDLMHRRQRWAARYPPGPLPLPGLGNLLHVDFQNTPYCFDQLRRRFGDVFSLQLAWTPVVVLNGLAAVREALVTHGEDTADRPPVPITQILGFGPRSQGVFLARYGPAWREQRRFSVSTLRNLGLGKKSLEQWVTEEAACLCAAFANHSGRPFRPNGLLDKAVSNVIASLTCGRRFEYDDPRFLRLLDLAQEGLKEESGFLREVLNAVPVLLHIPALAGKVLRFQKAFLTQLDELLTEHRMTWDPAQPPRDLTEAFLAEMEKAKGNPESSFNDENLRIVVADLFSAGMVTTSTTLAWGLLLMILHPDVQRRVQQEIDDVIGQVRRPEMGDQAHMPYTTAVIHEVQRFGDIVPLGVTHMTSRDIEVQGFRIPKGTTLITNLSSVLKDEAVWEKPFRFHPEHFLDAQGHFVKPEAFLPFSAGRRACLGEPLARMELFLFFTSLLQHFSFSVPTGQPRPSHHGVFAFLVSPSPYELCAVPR
Protocol: as §1

[8] = target: T8, CYP2E1 (Homo sapiens, UniProt P05181); test: Monooxygenases activity screening, CYP2E1; set-up: key: +, detected; -, not detected
T8 construct: purchased Discovery Life Sciences (Huntsville, LA, USA); host or cells: baculovirus-infected insect cells (microsomes, Supersomes)
T8 sequence (P05181 whole entry): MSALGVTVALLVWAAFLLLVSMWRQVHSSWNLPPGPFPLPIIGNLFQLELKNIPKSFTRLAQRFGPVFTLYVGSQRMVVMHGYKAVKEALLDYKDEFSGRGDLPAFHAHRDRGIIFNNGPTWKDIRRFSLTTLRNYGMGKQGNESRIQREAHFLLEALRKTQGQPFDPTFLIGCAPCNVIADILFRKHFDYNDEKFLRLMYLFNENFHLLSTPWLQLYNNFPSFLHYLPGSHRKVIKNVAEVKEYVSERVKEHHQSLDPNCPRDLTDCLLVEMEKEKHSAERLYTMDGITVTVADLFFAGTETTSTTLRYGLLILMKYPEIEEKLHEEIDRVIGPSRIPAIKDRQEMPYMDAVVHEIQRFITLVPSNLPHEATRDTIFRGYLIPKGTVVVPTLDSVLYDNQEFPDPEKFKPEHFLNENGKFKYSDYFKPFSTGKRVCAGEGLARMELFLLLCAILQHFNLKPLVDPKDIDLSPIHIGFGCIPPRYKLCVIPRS
Protocol: as §1

[9] = target: T9, CYP3A4 (Homo sapiens, UniProt P08684); test: Monooxygenases activity screening, CYP3A4; set-up: key: +, detected; -, not detected
T9 construct: purchased Discovery Life Sciences (Huntsville, LA, USA); host or cells: baculovirus-infected insect cells (microsomes, Supersomes)
T9 sequence (P08684 whole entry): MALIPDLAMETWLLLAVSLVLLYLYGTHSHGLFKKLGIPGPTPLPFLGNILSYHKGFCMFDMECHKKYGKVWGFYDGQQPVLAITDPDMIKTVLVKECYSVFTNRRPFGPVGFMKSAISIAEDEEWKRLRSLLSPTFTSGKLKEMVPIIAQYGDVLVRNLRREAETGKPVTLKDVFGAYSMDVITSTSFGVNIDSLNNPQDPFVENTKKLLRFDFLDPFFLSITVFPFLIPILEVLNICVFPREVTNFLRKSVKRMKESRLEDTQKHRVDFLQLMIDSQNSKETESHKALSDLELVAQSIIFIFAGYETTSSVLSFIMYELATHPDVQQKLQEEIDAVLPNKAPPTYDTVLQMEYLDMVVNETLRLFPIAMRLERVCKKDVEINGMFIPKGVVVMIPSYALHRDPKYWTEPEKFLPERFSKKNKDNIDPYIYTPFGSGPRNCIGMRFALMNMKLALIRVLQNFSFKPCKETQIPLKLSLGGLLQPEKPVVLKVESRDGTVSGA
Protocol: as §1

[10] = target: T10, CYP3A5 (Homo sapiens, UniProt P20815); test: Monooxygenases activity screening, CYP3A5; set-up: key: +, detected; -, not detected
T10 construct: purchased Discovery Life Sciences (Huntsville, LA, USA); host or cells: baculovirus-infected insect cells (microsomes, Supersomes)
T10 sequence (P20815 whole entry): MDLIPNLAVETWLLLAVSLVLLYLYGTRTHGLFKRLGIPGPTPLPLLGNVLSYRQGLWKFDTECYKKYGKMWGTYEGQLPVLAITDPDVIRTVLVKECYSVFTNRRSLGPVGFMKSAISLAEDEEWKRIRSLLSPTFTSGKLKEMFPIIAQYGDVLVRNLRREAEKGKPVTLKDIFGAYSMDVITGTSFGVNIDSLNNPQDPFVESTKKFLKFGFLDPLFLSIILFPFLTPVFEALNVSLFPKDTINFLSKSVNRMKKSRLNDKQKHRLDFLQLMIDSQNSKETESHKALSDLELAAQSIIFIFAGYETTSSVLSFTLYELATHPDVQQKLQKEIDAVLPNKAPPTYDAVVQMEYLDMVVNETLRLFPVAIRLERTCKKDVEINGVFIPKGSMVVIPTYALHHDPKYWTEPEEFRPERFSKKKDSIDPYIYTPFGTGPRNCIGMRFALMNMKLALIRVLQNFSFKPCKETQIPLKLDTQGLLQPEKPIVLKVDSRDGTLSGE
Protocol: as §1

[11] = target: T11, flavin-containing monooxygenase 3 (FMO3) (Homo sapiens, UniProt P31513); test: Monooxygenases activity screening, FMO3; set-up: key: +, detected; -, not detected
T11 construct: purchased Discovery Life Sciences (Huntsville, LA, USA); host or cells: baculovirus-infected insect cells (microsomes, Supersomes)
T11 sequence (P31513 1-532): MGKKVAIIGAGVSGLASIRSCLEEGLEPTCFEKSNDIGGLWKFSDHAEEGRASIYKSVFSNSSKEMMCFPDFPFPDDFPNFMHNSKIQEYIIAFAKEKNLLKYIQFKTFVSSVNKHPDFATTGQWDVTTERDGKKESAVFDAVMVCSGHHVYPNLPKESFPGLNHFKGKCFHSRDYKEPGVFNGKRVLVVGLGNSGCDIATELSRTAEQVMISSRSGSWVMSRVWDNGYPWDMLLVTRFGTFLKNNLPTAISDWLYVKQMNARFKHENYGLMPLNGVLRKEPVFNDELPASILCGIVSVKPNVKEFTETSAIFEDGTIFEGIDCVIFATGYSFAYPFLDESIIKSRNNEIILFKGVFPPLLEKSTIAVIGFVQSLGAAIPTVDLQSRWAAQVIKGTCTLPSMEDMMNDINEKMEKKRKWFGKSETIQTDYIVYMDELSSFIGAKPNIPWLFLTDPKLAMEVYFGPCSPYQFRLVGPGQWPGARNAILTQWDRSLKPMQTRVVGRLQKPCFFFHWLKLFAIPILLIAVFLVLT
Protocol: as §1

[12] = substrate 4MeS-NE-BP 25 µM, Table S3.4
[13] = substrate 4MeO-αP-BP 25 µM, Table S3.2
[14] = substrate 4MeO-αP-VP 25 µM, Table S3.3
[15] = substrate 4MeS-αMor-PrP 25 µM, Table S3.6

Compound: CCNC(CC)C(=O)c1ccc(S)cc1 (centres unmarked) [MT1.1]
- one-step metabolite detected in CYP1A2 incubation [1, 12]: -
- one-step metabolite detected in CYP2A6 incubation [2, 12]: -
- one-step metabolite detected in CYP2B6 incubation [3, 12]: -
- one-step metabolite detected in CYP2C8 incubation [4, 12]: -
- one-step metabolite detected in CYP2C9 incubation [5, 12]: -
- one-step metabolite detected in CYP2C19 incubation [6, 12]: -
- one-step metabolite detected in CYP2D6 incubation [7, 12]: +
- one-step metabolite detected in CYP2E1 incubation [8, 12]: -
- one-step metabolite detected in CYP3A4 incubation [9, 12]: -
- one-step metabolite detected in CYP3A5 incubation [10, 12]: -
- one-step metabolite detected in FMO3 incubation [11, 12]: -

Compound: CCC(C(=O)c1ccc(O)cc1)N1CCCC1 (centres unmarked) [MO2.2]
- one-step metabolite detected in CYP1A2 incubation [1, 13]: +
- one-step metabolite detected in CYP2A6 incubation [2, 13]: -
- one-step metabolite detected in CYP2B6 incubation [3, 13]: -
- one-step metabolite detected in CYP2C8 incubation [4, 13]: -
- one-step metabolite detected in CYP2C9 incubation [5, 13]: -
- one-step metabolite detected in CYP2C19 incubation [6, 13]: +
- one-step metabolite detected in CYP2D6 incubation [7, 13]: +
- one-step metabolite detected in CYP2E1 incubation [8, 13]: -
- one-step metabolite detected in CYP3A4 incubation [9, 13]: -
- one-step metabolite detected in CYP3A5 incubation [10, 13]: -
- one-step metabolite detected in FMO3 incubation [11, 13]: -

Compound: CCCC(C(=O)c1ccc(O)cc1)N1CCCC1 (centres unmarked) [MO3.2]
- one-step metabolite detected in CYP1A2 incubation [1, 14]: +
- one-step metabolite detected in CYP2A6 incubation [2, 14]: -
- one-step metabolite detected in CYP2B6 incubation [3, 14]: -
- one-step metabolite detected in CYP2C8 incubation [4, 14]: +
- one-step metabolite detected in CYP2C9 incubation [5, 14]: -
- one-step metabolite detected in CYP2C19 incubation [6, 14]: +
- one-step metabolite detected in CYP2D6 incubation [7, 14]: +
- one-step metabolite detected in CYP2E1 incubation [8, 14]: -
- one-step metabolite detected in CYP3A4 incubation [9, 14]: +
- one-step metabolite detected in CYP3A5 incubation [10, 14]: -
- one-step metabolite detected in FMO3 incubation [11, 14]: -

Compound: CSc1ccc(C(=O)C(C)[N+]2([O-])CCOCC2)cc1 (centres unmarked) [MT3.3]
- one-step metabolite detected in CYP1A2 incubation [1, 15]: -
- one-step metabolite detected in CYP2A6 incubation [2, 15]: +
- one-step metabolite detected in CYP2B6 incubation [3, 15]: -
- one-step metabolite detected in CYP2C8 incubation [4, 15]: -
- one-step metabolite detected in CYP2C9 incubation [5, 15]: -
- one-step metabolite detected in CYP2C19 incubation [6, 15]: -
- one-step metabolite detected in CYP2D6 incubation [7, 15]: -
- one-step metabolite detected in CYP2E1 incubation [8, 15]: -
- one-step metabolite detected in CYP3A4 incubation [9, 15]: -
- one-step metabolite detected in CYP3A5 incubation [10, 15]: -
- one-step metabolite detected in FMO3 incubation [11, 15]: +
